Experimental data taken from US20070238723A1, “Benzoxazinyl-amidocyclopentyl-heterocyclic modulators of chemokine receptors” (priority 2004, published 2007).

Target: T1, CCR-2 receptor (Homo sapiens, UniProt P41597)
T1 construct: the endogenous CCR-2 receptor on various cell types including monocytes, THP-1 cells; endogenous in cells; host or cells: monocytes, THP-1 cells (or unnamed eukaryotic cells expressing the cloned receptor)
Test: CCR-2 binding assay (inhibition of 125I-MCP-1 binding)
Conditions: qualitative comparison among separated isomers; assay not given
Description: Receptor affinity in a CCR-2 binding assay was determined by measuring inhibition of ^125I-MCP-1 to the endogenous CCR-2 receptor on various cell types including monocytes, THP-1 cells, or after heterologous expression of the cloned receptor in eukaryotic cells. The cells were suspended in binding buffer (50 mM HEPES, pH 7.2, 5 mM MgCl2, 1 mM CaCl2, and 0.50% BSA) with and added to test compound or DMSO and ^125I-MCP-1 at room temperature for 1 h to allow binding. The cells were then collected on GFB filters, washed with 25 mM HEPES buffer containing 500 mM NaCl and cell bound ^125I-MCP-1 was quantified.

T1 sequence (P41597 whole entry): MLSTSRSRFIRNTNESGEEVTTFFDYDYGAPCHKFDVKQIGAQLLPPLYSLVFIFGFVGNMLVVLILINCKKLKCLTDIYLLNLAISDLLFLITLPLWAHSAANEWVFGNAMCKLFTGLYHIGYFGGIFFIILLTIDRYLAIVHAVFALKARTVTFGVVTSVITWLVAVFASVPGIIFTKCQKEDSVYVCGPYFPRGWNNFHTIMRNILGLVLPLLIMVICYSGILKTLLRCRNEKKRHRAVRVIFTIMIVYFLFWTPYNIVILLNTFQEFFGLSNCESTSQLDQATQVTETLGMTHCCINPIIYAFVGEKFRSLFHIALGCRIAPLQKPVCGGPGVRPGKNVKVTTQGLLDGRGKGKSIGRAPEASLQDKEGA

potency relative to other stereoisomers: best potency
Compound: CCOC(=O)c1cccc(C2CCN([C@@H]3CC[C@](C(C)=O)(C(=O)N4COc5ccc(C(F)(F)F)cc5C4)C3)CC2)c1 (single isomer, unassigned) [Peak 3]
